Experimental data published in ChEMBL document CHEMBL3132783, “Design, synthesis and biological evaluation of novel ligustrazinylated derivatives as potent cardiovascular agents” (Medchemcomm, 2013).
pEC50, pIC50: −log10 of the molar value.

Columns and labels:
[1] = Cytoprotective activity in H2O2-induced human ECV304 cells assessed as proliferation rate at 50 uM incubated for 24 hrs prior to H2O2-challenge measured after 12 hrs by MTT assay relative to control; type: functional; settings: ECV-304, read-out: Activity
[2] = Cytoprotective activity in H2O2-induced human ECV304 cells assessed as proliferation rate at 25 uM incubated for 24 hrs prior to H2O2-challenge measured after 12 hrs by MTT assay relative to control; type: functional; settings: ECV-304, read-out: Activity
[3] = Cytoprotective activity in H2O2-induced human ECV304 cells assessed as proliferation rate at 12.5 uM incubated for 24 hrs prior to H2O2-challenge measured after 12 hrs by MTT assay relative to control; type: functional; settings: ECV-304, read-out: Activity
[4] = Antiplatelet activity in rabbit platelet rich plasma assessed as inhibition of ADP-induced aggregation treated for 5 mins prior to ADP-challenge; type: functional; settings: Oryctolagus cuniculus
[5] = Cytoprotective activity in H2O2-induced human ECV304 cells assessed as proliferation rate incubated for 24 hrs prior to H2O2-challenge measured after 12 hrs by MTT assay; type: functional, cell-based; settings: ECV-304
[6] = Antiplatelet activity in rabbit platelet rich plasma assessed as inhibition of ADP-induced aggregation at 0.1 mM treated for 5 mins prior to ADP-challenge relative to control; type: functional; settings: Oryctolagus cuniculus
[7] = Antiplatelet activity in rabbit platelet rich plasma assessed as inhibition of ADP-induced aggregation at 0.4 mM treated for 5 mins prior to ADP-challenge relative to control; type: functional; settings: Oryctolagus cuniculus
[8] = Antiplatelet activity in rabbit platelet rich plasma assessed as inhibition of ADP-induced aggregation at 0.05 mM treated for 5 mins prior to ADP-challenge relative to control; type: functional; settings: Oryctolagus cuniculus
[9] = Cytoprotective activity in H2O2-induced human ECV304 cells assessed as proliferation rate at 100 uM incubated for 24 hrs prior to H2O2-challenge measured after 12 hrs by MTT assay relative to control; type: functional; settings: ECV-304, read-out: Activity
[10] = Antiplatelet activity in rabbit platelet rich plasma assessed as inhibition of ADP-induced aggregation at 0.2 mM treated for 5 mins prior to ADP-challenge relative to control; type: functional; settings: Oryctolagus cuniculus

## Cc1nc(C)c(COc2ccc3ccc(=O)oc3c2)nc1C
[1]
  growth at 50 µM: 44.2%
[2]
  growth at 25 µM: 42%
[3]
  growth at 12.5 µM: 38.8%
[4]
  pIC50: 2.89
[5]
  pEC50: 3.85
[6]
  inhibition at 100 µM: 25%
[7]
  inhibition at 400 µM: 39.2%
[8]
  inhibition at 50 µM: 21.7%
[9]
  growth at 100 µM: 46.6%
[10]
  inhibition at 200 µM: 35.1%

## Cc1nc(C)c(CSc2nnnn2-c2ccccc2)nc1C
[1]
  growth at 50 µM: -78.4%
[2]
  growth at 25 µM: -119%
[3]
  growth at 12.5 µM: -135%
[4]
  pIC50: < 2.70
[6]
  inhibition at 100 µM: 12.3%
[7]
  inhibition at 400 µM: 9.33%
[8]
  inhibition at 50 µM: -4.07%
[9]
  growth at 100 µM: -136%
[10]
  inhibition at 200 µM: 4.93%

## Cc1nc(C)c(CSc2nnnn2-c2cccc3ccccc23)nc1C
[4]
  pIC50: < 2.70
[6]
  inhibition at 100 µM: 10.2%
[7]
  inhibition at 400 µM: 13.1%
[8]
  inhibition at 50 µM: 2.25%
[10]
  inhibition at 200 µM: 5.75%

## CSc1snc(OCc2nc(C)c(C)nc2C)c1C#N
[1]
  growth at 50 µM: 160%
[2]
  growth at 25 µM: 25.2%
[4]
  pIC50: 2.82
[5]
  pEC50: < 1.00
[6]
  inhibition at 100 µM: 13.5%
[7]
  inhibition at 400 µM: 32.2%
[8]
  inhibition at 50 µM: 3.36%
[10]
  inhibition at 200 µM: 22.6%

## Cc1nc(C)c(Cn2nnc3ccccc32)nc1C
[1]
  growth at 50 µM: -96.5%
[2]
  growth at 25 µM: 25.1%
[3]
  growth at 12.5 µM: 23.2%
[4]
  pIC50: 2.74
[5]
  pEC50: < 1.00
[6]
  inhibition at 100 µM: 7.23%
[7]
  inhibition at 400 µM: 28.3%
[8]
  inhibition at 50 µM: -2.21%
[9]
  growth at 100 µM: -178%
[10]
  inhibition at 200 µM: 16.9%

## Cc1nc(C)c(Cn2cnc3ccccc32)nc1C
[1]
  growth at 50 µM: 0.25%
[2]
  growth at 25 µM: -13.8%
[3]
  growth at 12.5 µM: -91.8%
[4]
  pIC50: 2.72
[6]
  inhibition at 100 µM: 11%
[7]
  inhibition at 400 µM: 30.9%
[8]
  inhibition at 50 µM: -0.97%
[10]
  inhibition at 200 µM: 13.1%

## Cc1nc(C)c(CNC(=O)CN2CCCC2=O)nc1C
[1]
  growth at 50 µM: 23.4%
[2]
  growth at 25 µM: 14.5%
[3]
  growth at 12.5 µM: -35.8%
[4]
  pIC50: 2.92
[5]
  pEC50: 2.89
[6]
  inhibition at 100 µM: 10.4%
[7]
  inhibition at 400 µM: 36%
[8]
  inhibition at 50 µM: 3.23%
[9]
  growth at 100 µM: 26.4%
[10]
  inhibition at 200 µM: 19.6%

## C=CCSSCc1nc(C)c(C)nc1C
[1]
  growth at 50 µM: 15%
[2]
  growth at 25 µM: -17.6%
[3]
  growth at 12.5 µM: 13%
[4]
  pIC50: 2.89
[5]
  pEC50: 2.96
[6]
  inhibition at 100 µM: 18%
[7]
  inhibition at 400 µM: 38.1%
[8]
  inhibition at 50 µM: 16.7%
[9]
  growth at 100 µM: 51.1%
[10]
  inhibition at 200 µM: 30.4%

## C=CCc1ccc(OCc2nc(C)c(C)nc2C)c(OC)c1
[1]
  growth at 50 µM: 30.1%
[2]
  growth at 25 µM: 28.2%
[3]
  growth at 12.5 µM: 22%
[4]
  pIC50: < 2.70
[5]
  pEC50: 3.70
[6]
  inhibition at 100 µM: 1.45%
[7]
  inhibition at 400 µM: 6.42%
[8]
  inhibition at 50 µM: -4.29%
[9]
  growth at 100 µM: 36%
[10]
  inhibition at 200 µM: 12.3%

## Cc1nc(C)c(COc2ccc3c(C)cc(=O)oc3c2)nc1C
[1]
  growth at 50 µM: 25.8%
[2]
  growth at 25 µM: 21%
[3]
  growth at 12.5 µM: 12%
[4]
  pIC50: 3.04
[5]
  pEC50: 3.85
[6]
  inhibition at 100 µM: 8.73%
[7]
  inhibition at 400 µM: 40.1%
[8]
  inhibition at 50 µM: 2.27%
[9]
  growth at 100 µM: 36.6%
[10]
  inhibition at 200 µM: 17.2%

## Cc1nc(C)c(CSc2nnc(-c3cccs3)n2N)nc1C
[1]
  growth at 50 µM: 38.2%
[2]
  growth at 25 µM: 37.4%
[3]
  growth at 12.5 µM: 36.2%
[4]
  pIC50: 3.09
[5]
  pEC50: 3.48
[6]
  inhibition at 100 µM: 13.4%
[7]
  inhibition at 400 µM: 38.5%
[8]
  inhibition at 50 µM: 0.15%
[9]
  growth at 100 µM: 40.2%
[10]
  inhibition at 200 µM: 23.2%

## Cc1nc(C)c(CSc2nc(C)c(CC(=O)O)s2)nc1C
[1]
  growth at 50 µM: 47%
[2]
  growth at 25 µM: 46.2%
[3]
  growth at 12.5 µM: 44.9%
[4]
  pIC50: 3.21
[5]
  pEC50: 3.82
[6]
  inhibition at 100 µM: 35%
[7]
  inhibition at 400 µM: 46.9%
[8]
  inhibition at 50 µM: 27.5%
[9]
  growth at 100 µM: 48.1%
[10]
  inhibition at 200 µM: 38.3%

## Cc1nc(C)c(CSc2nnnn2C)nc1C
[1]
  growth at 50 µM: -77%
[2]
  growth at 25 µM: -180%
[4]
  pIC50: < 2.70
[6]
  inhibition at 100 µM: 4.04%
[7]
  inhibition at 400 µM: 9.95%
[8]
  inhibition at 50 µM: 1.53%
[9]
  growth at 100 µM: -117%
[10]
  inhibition at 200 µM: 13.5%

## Cc1nc(C)c(CSc2nc3ccccc3s2)nc1C
[1]
  growth at 50 µM: 9.51%
[2]
  growth at 25 µM: 7.95%
[3]
  growth at 12.5 µM: 4.33%
[4]
  pIC50: 2.80
[5]
  pEC50: 3.44
[6]
  inhibition at 100 µM: 13.4%
[7]
  inhibition at 400 µM: 33.4%
[8]
  inhibition at 50 µM: 5.12%
[9]
  growth at 100 µM: 17.2%
[10]
  inhibition at 200 µM: 20.9%

## Cc1nc(C)c(CSc2nnc(-c3ccco3)n2N)nc1C
[1]
  growth at 50 µM: 23.5%
[2]
  growth at 25 µM: 21.3%
[3]
  growth at 12.5 µM: 19%
[4]
  pIC50: 3.03
[5]
  pEC50: 3.38
[6]
  inhibition at 100 µM: 10.4%
[7]
  inhibition at 400 µM: 35.6%
[8]
  inhibition at 50 µM: -2.62%
[9]
  growth at 100 µM: 25.8%
[10]
  inhibition at 200 µM: 20%

## CCOC(=O)c1ccc(OCc2nc(C)c(C)nc2C)c(OC)c1
[1]
  growth at 50 µM: 15.8%
[2]
  growth at 25 µM: 15.5%
[3]
  growth at 12.5 µM: 14.9%
[4]
  pIC50: < 2.70
[5]
  pEC50: 2.49
[6]
  inhibition at 100 µM: 3.1%
[7]
  inhibition at 400 µM: -3.31%
[8]
  inhibition at 50 µM: 9.7%
[9]
  growth at 100 µM: 16%
[10]
  inhibition at 200 µM: 7.48%

## Cc1nc(C)c(COc2ccccc2C(=O)O)nc1C
[1]
  growth at 50 µM: 18.2%
[2]
  growth at 25 µM: 17.4%
[3]
  growth at 12.5 µM: 14.1%
[4]
  pIC50: 3.40
[5]
  pEC50: 3.21
[6]
  inhibition at 100 µM: 32%
[7]
  inhibition at 400 µM: 51.7%
[8]
  inhibition at 50 µM: 15.6%
[9]
  growth at 100 µM: 20%
[10]
  inhibition at 200 µM: 34.6%

## COc1cc(C(=O)O)ccc1OCc1nc(C)c(C)nc1C
[1]
  growth at 50 µM: 18.4%
[2]
  growth at 25 µM: 16.4%
[3]
  growth at 12.5 µM: 15.1%
[4]
  pIC50: < 2.70
[5]
  pEC50: 3.09
[6]
  inhibition at 100 µM: 1.01%
[7]
  inhibition at 400 µM: 4.41%
[8]
  inhibition at 50 µM: 11.2%
[9]
  growth at 100 µM: 19%
[10]
  inhibition at 200 µM: -11.2%

## Cc1nc(C)c(C)nc1C [LIGUSTRAZINE]
[1]
  growth at 50 µM: 22.1%
[2]
  growth at 25 µM: 12.7%
[3]
  growth at 12.5 µM: 10.4%
[5]
  pEC50: 3.22
[9]
  growth at 100 µM: 42.8%

## O=C(O)CCCCC1CCSS1 (stereo not drawn) [LIPOIC ACID, ALPHA]
[1]
  growth at 50 µM: 48.7%
[2]
  growth at 25 µM: -12.3%
[3]
  growth at 12.5 µM: 30.5%
[5]
  pEC50: 4.17
[9]
  growth at 100 µM: 58.1%

## O=C(O)/C=C/c1ccc(Cn2ccnc2)cc1 [OZAGREL]
[4]
  pIC50: 3.44
[6]
  inhibition at 100 µM: 27.3%
[7]
  inhibition at 400 µM: 55.3%
[8]
  inhibition at 50 µM: 23.3%
[10]
  inhibition at 200 µM: 45.4%
